What was measured:
CDK9/CycT1 = molecular target: T1, CDK9/CycT1 (Homo sapiens, UniProt P50750); assay: CDK9/CycT1 high ATP kinase assay (TR-FRET, 2 mM ATP); format: biochemical; conditions: 2 mM ATP (high ATP); median; read-out: CDK9/CyclinT1, 2 mM ATP (high ATP), IC50 (median)
T1 construct: Recombinant full-length His-tagged human CDK9 and CycT1; purchased Life Technologies PV4131; host or cells: insect cells
Outline: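 Full-length His-tagged human CDK9/CycT1 (insect cell, ~0.5 μg/mL) preincubated 15 min at 22 °C with compound in Tris pH 8.0, MgCl2, DTT buffer before reaction with biotinylated peptide substrate at high ATP (2 mM).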

[1] = tested on: CAL-120, human breast adenocarcinoma cells; assay: Proliferation assay CAL-120 (crystal violet, 4 days); format: cell-based; conditions: Homo sapiens, CAL-120, 96 h, CAL-120 cells, median, read-out: Prolif-CAL-120, IC50-[mol/l] (median)
Outline: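 Crystal violet proliferation read-out after 4 days of compound exposure (0.01-10 µmol/L; solvent 0.1% DMSO). Extinction at 595 nm, set between zero-point (0%) and vehicle (100%), fitted with 4 parameters to give IC50.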

T1 sequence (P50750 whole entry): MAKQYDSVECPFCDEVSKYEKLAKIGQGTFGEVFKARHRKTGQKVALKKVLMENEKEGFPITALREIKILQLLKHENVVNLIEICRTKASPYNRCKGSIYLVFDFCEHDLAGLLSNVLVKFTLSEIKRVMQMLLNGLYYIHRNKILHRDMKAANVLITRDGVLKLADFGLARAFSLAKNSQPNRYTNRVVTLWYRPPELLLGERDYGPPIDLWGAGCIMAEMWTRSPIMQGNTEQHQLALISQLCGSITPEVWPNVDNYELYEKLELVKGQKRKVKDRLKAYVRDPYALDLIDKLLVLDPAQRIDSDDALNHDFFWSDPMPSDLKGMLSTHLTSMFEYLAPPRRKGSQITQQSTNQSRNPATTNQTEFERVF
T1 sequence (O60563 whole entry partner): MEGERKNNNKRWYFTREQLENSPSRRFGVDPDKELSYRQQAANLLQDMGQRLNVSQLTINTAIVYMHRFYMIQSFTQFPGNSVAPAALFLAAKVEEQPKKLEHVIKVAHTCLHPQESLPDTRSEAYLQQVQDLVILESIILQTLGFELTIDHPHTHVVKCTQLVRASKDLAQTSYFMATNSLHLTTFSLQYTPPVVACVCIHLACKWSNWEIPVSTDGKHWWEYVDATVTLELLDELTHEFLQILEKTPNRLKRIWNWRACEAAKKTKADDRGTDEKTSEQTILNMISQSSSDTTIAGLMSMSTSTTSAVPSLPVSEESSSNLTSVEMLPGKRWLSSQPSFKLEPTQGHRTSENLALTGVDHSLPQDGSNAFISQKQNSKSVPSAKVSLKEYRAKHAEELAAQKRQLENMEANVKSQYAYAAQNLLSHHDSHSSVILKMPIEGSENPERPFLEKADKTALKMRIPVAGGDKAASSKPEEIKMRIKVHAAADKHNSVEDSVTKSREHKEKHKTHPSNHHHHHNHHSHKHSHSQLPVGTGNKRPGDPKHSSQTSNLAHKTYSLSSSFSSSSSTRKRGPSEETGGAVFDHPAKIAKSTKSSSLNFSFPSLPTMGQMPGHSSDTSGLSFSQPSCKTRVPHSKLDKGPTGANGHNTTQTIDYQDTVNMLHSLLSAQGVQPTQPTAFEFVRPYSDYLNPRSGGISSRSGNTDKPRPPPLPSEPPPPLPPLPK

SMILES	IC50 (CDK9/CycT1) [nM]	IC50 [1] [nM]
N[C@@H]1[C@@H]2C[C@H]1CN(c1nc(NCc3nc4ccccc4[nH]3)n3ncc(Br)c3n1)C2 [Example 289, 2-[(1R,5S,6s)-6-amino-3-azabicyclo[3.1.1]heptan-3-yl]-N-[(1H-benzimidazol-2-yl)methyl]-8-bromopyrazolo[1,5-a][1,3,5]triazin-4-amine]	> 20000	3.08
Fc1ccc2[nH]c(CNc3nc(N4C[C@H]5CC[C@@H](C4)N5)nc4c(C5CC5)cnn34)nc2c1F [Example 294, 8-cyclopropyl-2-[(1R,5S)-3,8-diazabicyclo[3.2.1]octan-3-yl]-N-[(4,5-difluoro-1H-benzimidazol-2-yl)methyl]pyrazolo[1,5-a][1,3,5]triazin-4-amine]	15300	1.42
Fc1cccc2[nH]c(CNc3nc(N4C[C@H]5CC[C@@H](C4)N5)nc4c(C5CC5)cnn34)nc12 [Example 296, 8-cyclopropyl-2-[(1R,5S)-3,8-diazabicyclo[3.2.1]octan-3-yl]-N-[(4-fluoro-1H-benzimidazol-2-yl)methyl]pyrazolo[1,5-a][1,3,5]triazin-4-amine]	> 20000	1.52
CCNC1CCN(c2nc(NCc3nc4ccccc4[nH]3)n3ncc(Br)c3n2)CC1 [Example 300]	> 20000	16.2
Clc1cc2nc(CNc3nc(N4CCOCC4)nc4c(C5CC5)cnn34)[nH]c2cc1Cl [Example 301, 8-cyclopropyl-N-[(5,6-dichloro-1H-benzimidazol-2-yl)methyl]-2-(morpholin-4-yl)pyrazolo[1,5-a][1,3,5]triazin-4-amine]	> 20000	5.74
FC(F)(F)Cc1cnn2c(NCc3nc4cc(Cl)c(Cl)cc4[nH]3)nc(N3CCOCC3)nc12 [Example 302, N-[(5,6-dichloro-1H-benzimidazol-2-yl)methyl]-2-(morpholin-4-yl)-8-(2,2,2-trifluoroethyl)pyrazolo[1,5-a][1,3,5]triazin-4-amine]	> 20000	8.98
Fc1cccc2[nH]c(CNc3nc(N4CCOCC4)nc4c(CC(F)(F)F)cnn34)nc12 [Example 303, N-[(4-fluoro-1H-benzimidazol-2-yl)methyl]-2-(morpholin-4-yl)-8-(2,2,2-trifluoroethyl)pyrazolo[1,5-a][1,3,5]triazin-4-amine]	> 20000	7.9
OCC1CN(c2nc(NCc3nc4ccccc4[nH]3)n3ncc(Br)c3n2)C1 [Example 304, [1-(4-{[(1H-benzimidazol-2-yl)methyl]amino}-8-bromopyrazolo[1,5-a][1,3,5]triazin-2-yl)azetidin-3-yl]methanol]	> 20000	86.7
CN(CC(C)(C)O)c1nc(NCc2nc3cc(Cl)c(Cl)cc3[nH]2)n2ncc(C3CC3)c2n1 [Example 306, 1-[(8-cyclopropyl-4-{[(5,6-dichloro-1H-benzimidazol-2-yl)methyl]amino}pyrazolo[1,5-a][1,3,5]triazin-2-yl)(methyl)amino]-2-methylpropan-2-ol]	> 20000	7.21
Fc1cc2nc(CNc3nc(N4CCOCC4)nc4c(C5CC5)cnn34)[nH]c2cc1Cl [Example 307, N-[(6-chloro-5-fluoro-1H-benzimidazol-2-yl)methyl]-8-cyclopropyl-2-(morpholin-4-yl)pyrazolo[1,5-a][1,3,5]triazin-4-amine]	> 20000	4.6
Fc1ccc2[nH]c(CNc3nc(N4CCOCC4)nc4c(CC(F)(F)F)cnn34)nc2c1 [Example 308, N-[(5-fluoro-1H-benzimidazol-2-yl)methyl]-2-(morpholin-4-yl)-8-(2,2,2-trifluoroethyl)pyrazolo[1,5-a][1,3,5]triazin-4-amine]	> 20000	10.2
CN1CCN(c2nc(NCc3nc4cc(F)c(Cl)cc4[nH]3)n3ncc(C4CC4)c3n2)CC1 [Example 309, N-[(6-chloro-5-fluoro-1H-benzimidazol-2-yl)methyl]-8-cyclopropyl-2-(4-methylpiperazin-1-yl)pyrazolo[1,5-a][1,3,5]triazin-4-amine]	> 20000	4.11
Fc1ccc2[nH]c(CNc3nc(N4CC5CCC(C4)N5)nc4c(C(F)(F)F)cnn34)nc2c1F [Example 310, 2-(3,8-diazabicyclo[3.2.1]octan-3-yl)-N-[(4,5-difluoro-1H-benzimidazol-2-yl)methyl]-8-(trifluoromethyl)pyrazolo[1,5-a][1,3,5]triazin-4-amine]	8490	1.74
CN1CCN(c2nc(NCc3nc4cc(F)c(F)cc4[nH]3)n3ncc(C4CC4)c3n2)CC1 [Example 311, 8-cyclopropyl-N-[(5,6-difluoro-1H-benzimidazol-2-yl)methyl]-2-(4-methylpiperazin-1-yl)pyrazolo[1,5-a][1,3,5]triazin-4-amine]	> 20000	8.13
Cc1cc2nc(CNc3nc(N4CCN(C)CC4)nc4c(C5CC5)cnn34)[nH]c2cc1C [Example 312, 8-cyclopropyl-N-[(5,6-dimethyl-1H-benzimidazol-2-yl)methyl]-2-(4-methylpiperazin-1-yl)pyrazolo[1,5-a][1,3,5]triazin-4-amine]	> 20000	2.32
CN(CC(C)(C)O)c1nc(NCc2nc3cc(F)c(Cl)cc3[nH]2)n2ncc(C3CC3)c2n1 [Example 317, 1-[(4-{[(6-chloro-5-fluoro-1H-benzimidazol-2-yl)methyl]amino}-8-cyclopropylpyrazolo[1,5-a][1,3,5]triazin-2-yl)(methyl)amino]-2-methylpropan-2-ol]	> 20000	3.66
Fc1cc2nc(CNc3nc(N4CCOCC4)nc4c(C5CC5)cnn34)[nH]c2cc1F [Example 318, 8-cyclopropyl-N-[(5,6-difluoro-1H-benzimidazol-2-yl)methyl]-2-(morpholin-4-yl)pyrazolo[1,5-a][1,3,5]triazin-4-amine]	> 20000	2.8

More lines, now with the values ahead:

IC50 (CDK9/CycT1) [nM]	IC50 [1] [nM]	SMILES
> 20000	20.3	CC1(N)CCN(c2nc(NCc3nc4ccccc4[nH]3)n3ncc(Br)c3n2)CC1 [Example 290, 2-(4-amino-4-methylpiperidin-1-yl)-N-[(1H-benzimidazol-2-yl)methyl]-8-bromopyrazolo[1,5-a][1,3,5]triazin-4-amine]
> 20000	18.6	Brc1cnn2c(NCc3nc4ccccc4[nH]3)nc(N3CCC4(CCN4)CC3)nc12 [Example 291, N-[(1H-benzimidazol-2-yl)methyl]-8-bromo-2-(1,7-diazaspiro[3.5]nonan-7-yl)pyrazolo[1,5-a][1,3,5]triazin-4-amine]
> 6250	3.01	CN(CC(C)(C)O)c1nc(NCc2nc3c(F)c(F)ccc3[nH]2)n2ncc(C3CC3)c2n1 [Example 292, 1-[(8-cyclopropyl-4-{[(4,5-difluoro-1H-benzimidazol-2-yl)methyl]amino}pyrazolo[1,5-a][1,3,5]triazin-2-yl)(methyl)amino]-2-methylpropan-2-ol]
> 20000	8.88	CN1CCN(c2nc(NCc3nc4c(F)cccc4[nH]3)n3ncc(C(F)(F)F)c3n2)CC1 [Example 293, N-[(4-fluoro-1H-benzimidazol-2-yl)methyl]-2-(4-methylpiperazin-1-yl)-8-(trifluoromethyl)pyrazolo[1,5-a][1,3,5]triazin-4-amine]
9270	7.25	CN(CC(C)(C)O)c1nc(NCc2nc3c(F)cccc3[nH]2)n2ncc(C3CC3)c2n1 [Example 295, 1-[(8-cyclopropyl-4-{[(4-fluoro-1H-benzimidazol-2-yl)methyl]amino}pyrazolo[1,5-a][1,3,5]triazin-2-yl)(methyl)amino]-2-methylpropan-2-ol]
> 20000	22.3	CN1CCN(c2nc(NCc3nc4ccccc4[nH]3)n3ncc(C(F)(F)F)c3n2)CC1 [Example 297, N-[(1H-benzimidazol-2-yl)methyl]-2-(4-methylpiperazin-1-yl)-8-(trifluoromethyl)pyrazolo[1,5-a][1,3,5]triazin-4-amine]
> 20000	4.05	CN1CCN(c2nc(NCc3nc4cc(Cl)ccc4[nH]3)n3ncc(C(F)(F)F)c3n2)CC1 [Example 298, N-[(5-chloro-1H-benzimidazol-2-yl)methyl]-2-(4-methylpiperazin-1-yl)-8-(trifluoromethyl)pyrazolo[1,5-a][1,3,5]triazin-4-amine]
> 20000	4.71	FC(F)(F)Cc1cnn2c(NCc3nc4cc(Cl)ccc4[nH]3)nc(N3CCOCC3)nc12 [Example 299, N-[(5-chloro-1H-benzimidazol-2-yl)methyl]-2-(morpholin-4-yl)-8-(2,2,2-trifluoroethyl)pyrazolo[1,5-a][1,3,5]triazin-4-amine]
